Test results as given in patent US20190308956A1, “PIPERAZINE DERIVATIVES AS ANTIVIRAL AGENTS WITH INCREASED THERAPEUTIC ACTIVITY” (SERVICIO ANDALUZ DE SALUD, priority 2016, published 2019).

Columns and labels:
Assay type in all cases: cell-based
[1] = system: HAdV5-GFP; assay: Plaque assay, HAdV5-GFP in 293β5 cells; details: read-out: Percentage of plaque formation inhibition, HAdV5-GFP, 10 μM, 293β5 cell line
Description: 1.5. Plaque assay. For low MOI infections, active compounds were further evaluated in a plaque assay. 293β5 cells were seeded in 6-well plates at 4×10^5 cells per well in duplicate for each condition. When cells reached 80-90% confluency, they were infected with HAdV5-GFP or HAdV16-GFP (0.06 vp/cell) and rocked for 2 h at 37° C. The inoculum was removed and the cells were washed once with PBS. The cells were then carefully overlaid with 4 ml/well of equal parts of 1.6% […] Difco Agar Noble (Becton, Dickinson & Co, Sparks, MD) and 2× EMEM (BioWhittaker) supplemented with 2x penicillin/streptomycin, 2× L-glutamine and 10% FBS. The mixture also contained compound in concentrations ranging from 5 to 1 μM. Following incubation for 7 days at 37° C., plates were scanned with a Typhoon 9410 imager (GE Healthcare Life Sciences), and plaques were quantified with ImageJ.43
For the plaque assay 293β5 cells were infected with HAdV5-GFP (in the presence of compound at 10 μM) (Table 2). From this generation of compounds, our primary screening identified 4 compounds (12, 13, 22 and 25) that inhibited HAdV5-GFP plaque formation >90% compared to a control with the same volume of DMSO.

[2] = system: Acinetobacter baumannii strains resistant to colistine; assay: Screening of inhibition of bacterial growth at 50 μM; details: 5×10^5 CFU/ml, 18 h; for Screening, growth inhibition Ab 21R: strain Ab 21R; for Screening, growth inhibition Ab 21R / Screening, growth inhibition Ab 22P: 50 μM; for Screening, growth inhibition Ab 24: strain Ab 24, 50 μM; for Screening, growth inhibition Ab 22P: strain Ab 22P
Text: (§1) All of the strains used were Acinetobacter baumannii strains resistant to colistine: Resistance (R)≥4 Sensibility (S)≤2—All of these strains have been disclosed in Valencia R, Arroyo L A, Conde M, Aldana J M, Torres M J, Fernandez-Cuenca F, et al. Nosocomial outbreak of infection with pan-drug-resistant Acinetobacter baumannii in a tertiary care university hospital. Infection control and hospital epidemiology. 2009; 30(3):257-63. The specific strains used were the following: 1, 10, 11, 14, 16, 17, 19, 20, 21R, 22P, 24, 99 and 113.
Evaluation of the inhibition of the bacterial growth of the 4 families of piperazines derivatives was performed by using a final concentration of 50 μM of each piperazine derivative in a concentration of 5×10^5 CFU/ml of each strain of A. baumannii in 96-well plates.
These plates were incubated for 18 hours at 37° C.

[3] = system: Acinetobacter baumannii strains resistant to colistine; assay: Minimal inhibitory concentration (MIC), microdilution in MHBII; details: 5×10^5 CFU/ml, 18 h; for CMI (MIC) Ab 21R: strain Ab 21R; for CMI (MIC) Ab 21R / CMI (MIC) Ab 22P: MHBII; for CMI (MIC) Ab 24: strain Ab 24, MHBII; for CMI (MIC) Ab 22P: strain Ab 22P
Text: as §1
Microdilution in cell medium Mueller Hinton Broth II (MHBII). This technique was carried out solely in those piperazines which presented inhibitory activity in the screening study.
We used decreasing concentrations of each piperazine derivative (from 50 μM -0.05 μM) in a concentration of 5×10^5 CFU/ml of each strain of A. baumannii in 96 well plates. These plates were incubated for 18 hours at a temperature 37° C.

COc1ccc(NC(=O)N2CCN(C(=O)OC(C)(C)C)CC2C)cc1 (stereo not shown) [Compound 14, 4-tert-Butoxycarbonyl-1-[(4-methoxyphenyl)aminocarbonyl]-2-methylpiperazine]
inhibition at 10 µM [1]: 49.1 ± 1.39%

CC1CN(C(=O)C(C)(C)C)CCN1C(=S)Nc1ccc([N+](=O)[O-])cc1 (stereo not shown) [Compound 17, 2-Methyl-1-[(4-nitrophenyl)aminothiocarbonyl]-4-pivaloylpiperazine]
inhibition at 10 µM [1]: 64 ± 8.97%

CC1CN(C(=O)C(C)(C)C)CCN1C(=O)Nc1ccc([N+](=O)[O-])cc1 (stereo not shown) [Compound 18, 2-Methyl-1-[(4-nitrophenyl)aminocarbonyl]-4-pivaloylpiperazine]
inhibition at 10 µM [1]: 0%

COc1ccc(NC(=O)N2CCN(C(=O)C(C)(C)C)CC2C)cc1 (stereo not shown) [Compound 19, 1-[(4-Methoxyphenyl)aminocarbonyl]-2-methyl-4-pivaloylpiperazine]
inhibition at 10 µM [1]: 0%

COc1ccc(C(=O)N2CCN(C(=O)c3ccccc3)CC2C)cc1 (stereo not shown) [Compound 21, 4-Benzoyl-1-(4-methoxybenzoyl)-2-methylpiperazine]
inhibition at 10 µM [1]: 0%

CC1CN(C(=O)c2ccccc2)CCN1C(=O)Nc1ccc([N+](=O)[O-])cc1 (stereo not shown) [Compound 23, 4-Benzoyl-2-methyl-1-[(4-nitrophenyl)aminocarbonyl]piperazine]
inhibition at 10 µM [1]: 71.7 ± 3.43%

COc1ccc(NC(=O)N2CCN(C(=O)c3ccccc3)CC2C)cc1 (stereo not shown) [Compound 24, 4-Benzoyl-1-[(4-methoxyphenyl)aminocarbonyl]-2-methylpiperazine]
inhibition at 10 µM [1]: 0%

CC1CN(C(=O)c2cc3ccccc3o2)CCN1C(=O)Nc1ccccc1Br (stereo not shown) [Compound 38, 4-(Benzofuran-2-carbonyl)-1-[(2-bromophenyl)aminocarbonyl]-2-methylpiperazine]
inhibition at 10 µM [1]: 55.8 ± 19.5%

COc1ccccc1NC(=O)N1CCN(C(=O)c2cc3ccccc3o2)CC1C (stereo not shown) [Compound 40, 4-(Benzofuran-2-carbonyl)-1-[(2-methoxyphenyl)aminocarbonyl]-2-methylpiperazine]
inhibition at 10 µM [1]: 16.4 ± 5.81%

CC1CN(C(=O)c2cc3ccccc3o2)CCN1C(=O)Nc1ccccc1 (stereo not shown) [Compound 41, 4-(Benzofuran-2-carbonyl)-2-methyl-1-(phenylaminocarbonyl)piperazine]
inhibition at 10 µM [1]: 11.2 ± 26.5%

C[C@@H]1CN(C(=O)OC(C)(C)C)CCN1C(=S)Nc1cc(C(F)(F)F)cc(C(F)(F)F)c1 [Compound R-592]
Screening, growth inhibition Ab 21R [2]: <50 µM
CMI (MIC) Ab 21R [3]: 3.12 µM

C[C@@H]1CN(C(=O)CC2CCCCC2)CCN1C(=S)Nc1cc(C(F)(F)F)cc(C(F)(F)F)c1 [Compound R-615]
Screening, growth inhibition Ab 24 [2]: <50 µM
CMI (MIC) Ab 24 [3]: 6.25 µM

C[C@H]1CN(C(=O)OC(C)(C)C)CCN1C(=S)Nc1cc(C(F)(F)F)cc(C(F)(F)F)c1 [Compound S-592]
Screening, growth inhibition Ab 21R [2]: <50 µM
Screening, growth inhibition Ab 22P [2]: <50 µM
Screening, growth inhibition Ab 24 [2]: <50 µM
CMI (MIC) Ab 21R [3]: 3.12 µM
CMI (MIC) Ab 22P [3]: 12.5 µM
CMI (MIC) Ab 24 [3]: 3.12 µM

CC1CN(C(=O)OC(C)(C)C)CCN1C(=S)Nc1ccc([N+](=O)[O-])cc1 (stereo not shown) [Vip 499]
Screening, growth inhibition Ab 14 ([2]; strain Ab 14, 50 μM): <50 µM
Screening, growth inhibition Ab 21R [2]: <50 µM
Screening, growth inhibition Ab 22P [2]: <50 µM
Screening, growth inhibition Ab 24 [2]: <50 µM
CMI (MIC) Ab 14 ([3]; strain Ab 14, MHBII): 25 µM
CMI (MIC) Ab 21R [3]: 50 µM
CMI (MIC) Ab 22P [3]: 25 µM
CMI (MIC) Ab 24 [3]: 25 µM
